Read-outs that look alike come from different tables or passages of the source.
Tests used:
[1] = Safety evaluation, repeated intravenous infusion (HNSTD); assay type: in vivo; conditions: monkey HNSTD expressed as eribulin amount
Method: Four groups were set up for this test, namely the vehicle control group and SMP-656 groups with different doses (5, 10, 15 mg/kg), with 10 animals in each group, including 5 females and 5 males. Monkeys in each group were intravenously infused (for 30 min) with SMP-656 at doses of 5, 10 and 15 mg/kg at a volume of 10 mL/kg, once every three weeks, for 3 administrations (total 9 weeks), followed by a 4-week recovery period.
During the test, detailed clinical observations, and body weight and food intake monitoring were performed once a week. Clinical pathology examinations (including: hematology, coagulation, serum biochemistry, and urine analysis) were performed on Day 7, Day 50 and Day 71 respectively. The observation of irritation at the administration site was conducted once a week during the administration period, 2-4 h after administration on the administration day, and once a week during the recovery period. For animals with symptoms, the observation frequency was increased to daily until the symptoms disappeared. All surviving animals underwent accompanying toxicokinetic testing on Day 1 and Day 22. At the end of the administration period and the end of the recovery period, all surviving animals were euthanized as planned, dissected and grossly observed, and tissues and organs were weighed or fixed and preserved for pathological examination.

[2] = highest non-severe toxic dose; from literature references 1 and 2; cited from earlier work
[3] = highest non-severe toxic dose; from literature references 1 and 2; cited from earlier work; remark: listed apart in the source

Molecule	Equivalent to eribulin amount [1] [mg/kg]	Monkey HNSTD (mg/kg) [2]	Monkey HNSTD (mg/kg) [3]
C=C1C[C@@H]2CC[C@@]34C[C@H]5O[C@H]6[C@@H](O3)[C@H]3O[C@H](CC[C@@H]3O[C@H]6[C@H]5O4)CC(=O)C[C@@H]3[C@@H](OC)[C@@H](C[C@H](O)CN)O[C@H]3C[C@H]3O[C@@H](CC[C@@H]1O2)C[C@@H](C)C3=C [Eribulin]	0.03	0.03^2 mg/kg	
MORAb-202: ADC with Eribulin as a small-molecule toxin, set DAR of 4	0.12		6^1 mg/kg
